The values below are quoted from earlier work in patent US20240122858A1, “MODIFIED-RELEASE DOSAGE FORMS OF RUXOLITINIB” (SLAYBACK PHARMA LLC, priority 2021, published 2024).

Turning to `N#CC[C@H](C1CCCC1)n1cc(-c2ncnc3[nH]ccc23)cn1` [Ruxolitinib phosphate, (3R)-3-cyclopentyl-3-[4-(7H-pyrrolo[2,3-d]-pyrimidin-4-yl)-pyrazol-1-yl]-propanenitrile phosphate], the permeability entry is recorded as “high permeability”. Besides, under “over a pH range of 1-8”, the aqueous solubility entry is on record as “high aqueous solubility”.

For the molecule `N#CC[C@H](C1CCCC1)n1cc(-c2ncnc3[nH]ccc23)cn1` [Ruxolitinib], the “solubility in aqueous buffers” value (free base) is reported as “sparingly soluble”.
